Drawing on ChEMBL document CHEMBL2046422, “Structure-activity relationship of nonacidic quinazolinone inhibitors of human microsomal prostaglandin synthase 1 (mPGES 1)” (J Med Chem, 2012), this text covers IC50 for one compound.

A short description of experiment [1]: Inhibition of rat recombinant mPGES-1.
The next experiment concerns the target T1, Prostaglandin E synthase (Homo sapiens, UniProt O14684).
T1 sequence (O14684 whole entry): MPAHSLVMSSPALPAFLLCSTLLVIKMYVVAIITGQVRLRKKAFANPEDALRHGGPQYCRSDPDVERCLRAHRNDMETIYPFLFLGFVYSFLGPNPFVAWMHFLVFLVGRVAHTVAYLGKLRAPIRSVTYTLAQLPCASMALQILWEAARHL
Briefly: Inhibition of human recombinant mPGES-1.

SMILES strings stand for the structures.

The term IC50 denotes the point on the concentration scale where inhibition reaches its midpoint. With `O=C(Nc1ccc(-c2ccc(Cl)c(Cl)c2)cc1)C1=C(O)c2ccccc2S(=O)(=O)N1`, the IC50 in experiment [1] is 1080 nM; at Prostaglandin E synthase, 16.5 nM.
